{"source": "patent EP1103270B1", "about": "“TREATMENT OF AUTOIMMUNE DISEASES IN MAMMALS” (UNIVERSIDAD COMPLUTENSE DE MADRID, priority 1999, dated 2000)", "key": {"mRNA of IL-6": {"test_system": "mRNA of IL-6", "assay": "Northern Blot for mRNA of IL-6 in macrophages activated with LPS", "type": "cell-based, rat", "conditions": "macrophages activated with LPS and exposed to the peptide; Figure 5", "procedure": "(§1) • Figure 1 represents the production of TNFα by murine macrophages in culture (5x10^5 cells/ml) stimulated with 10ngr/ml of LPS in the presence or absence of 10^-8M of VIP or ACHPA during the course of 24 hours. • Figure 2 represents the production of TNFα by murine macrophages in culture (5x10^5 cells/ml) after 6 hours of culture with 10ngr/ml of LPS and to which 10^-8M of VIP or ACHPA are added at different times. • Figure 3 represents the production of IL-6 by murine macrophages in culture (5x10^5 cells/ml) stimulated with 10ngr/ml of LPS in the presence or absence of 10^-8M of VIP or ACHPA during the course of 24 hours. • Figure 4 represents the production of IL-6 by murine macrophages in culture (5x10^5 cells/ml) after 6 hours of culture with 10ngr/ml of LPS and to which 10^-8M of VIP or ACHPA are added at different times. • Figure 5 presents the Northern Blot analysis for the presence of mRNA of TNFα and IL-6 in macrophages stimulated with LPS in the presence or absence of VIP or ACHPA (18S represents the corresponding rRNA as total quality control of loaded RNA). • Figure 6 represents the survival in mice injected with 400µgr of LPS and, simultaneously, or after 30 minutes, 1 or 4 hours, with 5 nmol of VIP or ACHPA.\n(§2) Macrophages from rat were submitted to the experimental conditions described in examples 1 and 3 and their mRNA was isolated. […]"}, "TNFα [1]": {"test_system": "TNFα", "assay": "Production of TNFα in peritoneal murine macrophages stimulated with LPS, in vitro", "type": "cell-based", "procedure": "as §1\nIn experiments carried out \"in vitro\" VIP and ACHPA inhibit the production of TNFα in peritoneal murine macrophages stimulated with LPS. […]"}, "mRNA of TNFα": {"test_system": "mRNA of TNFα", "assay": "Northern Blot for mRNA of TNFα in macrophages activated with LPS", "type": "cell-based, rat", "conditions": "macrophages activated with LPS and exposed to the peptide; Figure 5", "procedure": "as §1, §2"}, "TNFα [2]": {"test_system": "TNFα", "assay": "Circulating levels of TNFα in mice after injection of LPS", "type": "in vivo", "conditions": "2 hours after injection of 25 µgr of LPS, simultaneous administration of 5 nmol", "procedure": "In an experiment carried out with mice the circulating levels of TNFα 2 hours after injection of 25 µgr of LPS were approximately 4 ngr./ml. Simultaneous administration of 5 nmol of VIP or ACHPA reduced said levels by 60%."}, "IL-4 producing cells": {"test_system": "IL-4 producing cells", "assay": "Number of IL-4 producing cells (ELISPOT) in spleen and peritoneum of KLH-immunised mice", "type": "in vivo", "conditions": "5 nmol/mouse with second KLH injection, spleen and peritoneum cells two weeks later"}, "[3]": {"assay": "Survival of mice injected with a lethal dose of LPS (endotoxic shock)", "type": "in vivo", "conditions": "mice injected with 400µgr of LPS", "procedure": "as §1\nAn experiment was carried out in which the long-term survival over a period of 4 days was studied for mice injected with 400µgr of LPS. […]"}, "IL-6 [4]": {"test_system": "IL-6", "assay": "Production of IL-6 in peritoneal murine macrophages stimulated with LPS, in vitro", "type": "cell-based", "procedure": "In experiments carried out \" in vitro\" VIP and ACHPA inhibit the production of IL-6 in peritoneal murine macrophages stimulated with LPS. Most of the inhibition reaches values near to 90% and occurs with doses of stimulation of 10 µgr./ml of LPS. […] The inhibitory effect is also observed if the neuropeptides are added after stimulation with LPS, although the degree of inhibition is progressively smaller (see Figure 4)."}, "anti-KLH antibodies": {"test_system": "anti-KLH antibodies", "assay": "Isotype of serum anti-KLH antibodies (ELISA) in KLH-immunised mice", "type": "in vivo", "conditions": "5 nmol/mouse with second KLH injection, serum two weeks after the last immunisation"}, "IL-6 [5]": {"test_system": "IL-6", "assay": "Circulating levels of IL-6 in mice after injection of LPS", "type": "in vivo", "conditions": "two hours after injection of 25 µgr. of LPS, simultaneous administration of 5nmol", "source_text": "In an experiment carried out in mice the circulating levels of IL-6 two hours after injection of 25 µgr. of LPS were approximately 1.5 ngr./ml. The simultaneous administration of 5nmol of VIP or ACHPA reduced said levels by 60% and 75%, respectively."}}, "data": [{"substance": "adenylate cyclase hypophysary peptide activator [ACHPA]", "values": [{"measurement": "transcripts for IL-6 (Northern Blot)", "setting": "mRNA of IL-6", "value": "absence of transcripts"}, {"measurement": "IC50", "setting": "TNFα [1]; peritoneal murine macrophages stimulated with LPS, read-out: IC50 (inhibition of the production of TNFα)", "value": 0.08, "unit": "nM"}, {"measurement": "greatest degree of inhibition of the production of TNFα", "setting": "TNFα [1]; peritoneal murine macrophages, stimulation with 1-10 ngr./ml of LPS", "value": "~60", "unit": "%"}, {"measurement": "transcripts for TNFα (Northern Blot)", "setting": "mRNA of TNFα", "value": "absence of transcripts"}, {"measurement": "reduction of circulating levels of TNFα", "setting": "TNFα [2]", "value": 60, "unit": "%"}, {"measurement": "increase in the number of IL-4 producing cells compared to untreated mice", "setting": "IL-4 producing cells", "value": "~20", "unit": "times"}, {"measurement": "survival rates", "setting": "[3]; administration up to 1 hour after injection with LPS", "value": "~50", "unit": "%"}, {"measurement": "survival at the end of the experiment", "setting": "[3]; simultaneous administration of 5 nmol, period of 4 days", "value": 60, "unit": "%"}, {"measurement": "IC50", "setting": "IL-6 [4]; peritoneal murine macrophages stimulated with LPS, read-out: IC50 (inhibition of the production of IL-6)", "value": 0.0086, "unit": "nM"}, {"measurement": "inhibition of the production of IL-6 (most of the inhibition)", "setting": "IL-6 [4]; peritoneal murine macrophages, stimulation with 10 µgr./ml of LPS", "value": "~90", "unit": "%"}, {"measurement": "isotype of anti-KLH antibodies detectable in serum", "setting": "anti-KLH antibodies", "value": "only of the IgGl isotype"}, {"measurement": "reduction of circulating levels of IL-6", "setting": "IL-6 [5]", "value": 75, "unit": "%"}]}]}
